Source: article PMC6632053, “Incorporation of Putative Helix-Breaking Amino Acids in the Design of Novel Stapled Peptides: Exploring Biophysical and Cellular Permeability Properties” (Molecules, 2019)
Values joined by “and” are separate entries in the source; they are usually repeats but may differ in a detail not shown here. Equal values may be shown once. Read-outs that look alike come from different tables or passages of the source. Bridge positions count the residues as written; N and C are the ends. Square brackets hold non-standard residues; d marks the D form. Peptide text beside a SMILES is read from it. R8 = C=CCCCCCC[C@@](C)(N)C(=O)O; Cba = N[C@@H](CC1CCC1)C(=O)O; S5 = C=CCCC[C@](C)(N)C(=O)O

Tests used:
human Mdm2 1–125 = target: T1, human Mdm2 1–125 (Homo sapiens, UniProt Q00987); assay: Mdm2 binding assay (competitive fluorescence anisotropy/polarization)
T1 construct: GST (N); His6 (internal); TEV cleavage site ENLYFQG (internal); made in house; host or cells: Escherichia coli BL21 (DE3) Rosetta T1R
T1 sequence (Q00987 with tags, fused parts or gaps): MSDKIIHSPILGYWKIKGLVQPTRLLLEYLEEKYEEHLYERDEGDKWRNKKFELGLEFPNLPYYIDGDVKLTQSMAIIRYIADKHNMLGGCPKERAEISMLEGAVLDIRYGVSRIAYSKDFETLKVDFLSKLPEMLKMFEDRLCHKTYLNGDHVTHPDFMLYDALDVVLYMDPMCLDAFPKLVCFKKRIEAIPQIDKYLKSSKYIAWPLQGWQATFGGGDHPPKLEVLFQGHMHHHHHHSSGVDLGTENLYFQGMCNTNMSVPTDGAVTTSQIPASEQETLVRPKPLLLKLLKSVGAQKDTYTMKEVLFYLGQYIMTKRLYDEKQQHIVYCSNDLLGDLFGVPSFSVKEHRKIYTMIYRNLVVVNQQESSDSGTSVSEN
Experimental: The TEV (tobacco etch virus) cleavage site was changed from ENLYFQS to ENLYFQG to give a fusion protein with the following sequence:
Titrations were carried out with the concentration of Mdm2 held constant at 250 nM and the labeled peptide at 50 nM. The competing molecules were then titrated against the complex of the FAM-labeled peptide and protein. Apparent Kd values were determined by fitting the experimental data to the equations shown below:(2) r=r0+(rb−r0)×2(d^2−3e)cos(θ/3)−9/3Kd1+2(d^2−3e)cos(θ/3)−dd=Kd1+Kd2+[L]st+[L]t−[P]te=([L]t−[P]t)Kd1+([L]st−[P]t)Kd2+Kd1Kd2f=−Kd1Kd2[P]tθ=arcos[−2d^3+9de−27f/2(d^2−3e)^3] where [L]st and [L]t denote labeled ligand and total unlabeled ligand input concentrations, respectively. Kd2 is the dissociation constant of the interaction between the unlabeled ligand and the protein. In all competition experiments, it was assumed that [P]t > [L]st, otherwise considerable amounts of free labeled ligand would always be present and would interfere with measurements. Kd1 is the apparent Kd for the labeled peptide used and was experimentally determined as described in the previous paragraph. The FAM-labeled peptide was dissolved in dimethyl sulfoxide (DMSO) at 1 mM and diluted into the experimental buffer. Readings were carried out with an Envision Multilabel Reader (PerkinElmer). Experiments were carried out in PBS (2.7 mM KCl, 137mM NaCl, 10 mM Na2HPO4, and 2 mM KH2PO4 (pH 7.4)) and 0.1% Tween 20 buffer. All titrations were carried out in triplicate. Curve-fitting was carried out using Prism 4.0 (GraphPad). […] Negative control titrations of the ligands under investigation were also carried out with the fluorescently labeled peptide (in the absence of Mdm2) to ensure no interactions were occurring between the ligands and the FAM-labeled peptide.

[1] = system: p53 responsive β-lactamase reporter in HCT116 cells; assay: p53 beta-lactamase reporter gene cellular functional assay; assay type: cell-based; conditions: p53 reporter assay, HCT116, read-out: Cellular (µM), cellular activity (EC50)
Experimental: HCT116 cells were stably transfected with a p53 responsive β-lactamase reporter and were seeded into a 384-well plate at a density of 8000 cells per well. Cells were maintained in McCoy’s 5A Medium with 10% fetal bovine serum (FBS), Blasticidin, and Penicillin/Streptomycin. The cells were incubated overnight, followed by removal of cell growth media and replacement with Opti-MEM either containing 0% FBS or 10% FBS. […] The final working concentration of DMSO was 0.5%. β-lactamase activity was detected using the ToxBLAzer Dual Screen (Invitrogen), as per the manufacturer’s instructions. Measurements were made using the Envision multiplate reader (Perkin–Elmer).

[2] = Circular dichroism (CD) α-helicity; assay type: physicochemical; conditions: for Helicity (%): CD of free peptide, 25 °C, 1 mM Hepes pH 7.4, 5% methanol
Experimental: A total of 5 µL of the 10 mM stock peptide was mixed with 45 µL of 100% methanol, and dried for 2 h in the SpeedVac concentrator (Thermo Scientific). The dried peptide was reconstituted in a buffer (1 mM Hepes pH 7.4 and 5% methanol) to a concentration of 1 mM. The peptide sample was placed in a quartz cuvette with a path length of 0.2 cm. The peptide concentration was determined by the absorbance of the peptide at […]. The CD spectrum was recorded from 300 to 190 nm using the Chirascan-plus qCD machine (Applied Photophysics, Surrey, UK), at 25 °C. All experiments were done in duplicates. The CD spectrum was converted to mean residue ellipticity, before deconvolution and estimation of the secondary structure components of the peptide using the CDNN software (distributed by Applied Photophysics).

[3] = Table 1, competitive fluorescence polarization, read-out: Mdm2 (nM), Mdm2 binding (Kd)
[4] = Table 2, competitive fluorescence polarization, read-out: Mdm2 (nM), Mdm2 binding (Kd)

Row | SMILES | Kd (human Mdm2 1–125; [3]) [nM] | EC50 ([1]; Table 1) [µM] | Helicity (%) ([2]; Table 1) | Kd (human Mdm2 1–125; [4]) [nM] | EC50 ([1]; Table 2) [µM] | Helicity (%) ([2]; Table 2) | α-helicity by CD ([2]; listed as Pro^9) | Kd (human Mdm2 1–125) [nM]
1 | CC(=O)N[C@@H](CC(C)C)C(=O)N[C@H](C(=O)N[C@@H](C)C(=O)N[C@]1(C)CCCCCCC=CCCC[C@@](C)(C(=O)N[C@@H](CO)C(=O)N[C@@H](C)C(=O)N[C@@H](C)C(N)=O)NC(=O)[C@H](CC2CCC2)NC(=O)[C@H](CC(C)C)NC(=O)[C@H](CCC(N)=O)NC(=O)[C@H](Cc2c[nH]c3ccccc23)NC(=O)[C@H](Cc2ccc(O)cc2)NC(=O)[C@H](CCC(=O)O)NC1=O)[C@@H](C)O [Peptide F3A] (Ac-LTA[R8]EYWQL[Cba][S5]SAA-NH2; staple 4-11) | 3600 | 37 | 48.4 | – | – | – | – | –
2 | CC(=O)N[C@@H](C)C(=O)N[C@H](C(=O)N[C@@H](Cc1ccccc1)C(=O)N[C@]1(C)CCCCCCC=CCCC[C@@](C)(C(=O)N[C@@H](CO)C(=O)N[C@@H](C)C(=O)N[C@@H](C)C(N)=O)NC(=O)[C@H](CC2CCC2)NC(=O)[C@H](CC(C)C)NC(=O)[C@H](CCC(N)=O)NC(=O)[C@H](Cc2c[nH]c3ccccc23)NC(=O)[C@H](Cc2ccc(O)cc2)NC(=O)[C@H](CCC(=O)O)NC1=O)[C@@H](C)O [Peptide L1A] (Ac-ATF[R8]EYWQL[Cba][S5]SAA-NH2; staple 4-11) | 17.6 | 0.5 | 53.3 | – | – | – | – | –
3 | CC(=O)N[C@@H](CCCCN=[N+]=[N-])C(=O)NCCC(=O)NCC(=O)N[C@H](C(=O)N[C@@H](Cc1ccccc1)C(=O)N[C@]1(C)CCCCCCC=CCCC[C@@](C)(C(=O)N[C@@H](CO)C(=O)N[C@@H](C)C(=O)N[C@@H](C)C(N)=O)NC(=O)[C@H](CC2CCC2)NC(=O)[C@H](CCC(N)=O)NC(=O)[C@H](C)NC(=O)[C@H](Cc2c[nH]c3ccccc23)NC(=O)[C@H](Cc2ccc(O)cc2)NC(=O)[C@H](CCC(=O)O)NC1=O)[C@@H](C)O [Peptide L1G] | – | – | – | 22.1 | 1.6 | 44.6 | – | –
4 | CC(=O)N[C@@H](CCCCN=[N+]=[N-])C(=O)NCCC(=O)N1CCC[C@H]1C(=O)N[C@H](C(=O)N[C@@H](Cc1ccccc1)C(=O)N[C@]1(C)CCCCCCC=CCCC[C@@](C)(C(=O)N[C@@H](CO)C(=O)N[C@@H](C)C(=O)N[C@@H](C)C(N)=O)NC(=O)[C@H](CC2CCC2)NC(=O)[C@H](CCC(N)=O)NC(=O)[C@H](C)NC(=O)[C@H](Cc2c[nH]c3ccccc23)NC(=O)[C@H](Cc2ccc(O)cc2)NC(=O)[C@H](CCC(=O)O)NC1=O)[C@@H](C)O [Peptide L1P] | – | – | – | 21.9 | 0.75 | 41.6 | – | –
5 | CC(=O)N[C@@H](CC(C)C)C(=O)N[C@H](C(=O)N[C@@H](Cc1ccccc1)C(=O)N[C@]1(C)CCCCCCC=CCCC[C@@](C)(C(=O)N[C@@H](CO)C(=O)N[C@@H](C)C(=O)N[C@@H](C)C(N)=O)NC(=O)[C@H](CC2CCC2)NC(=O)[C@H](C)NC(=O)[C@H](CCC(N)=O)NC(=O)[C@H](Cc2c[nH]c3ccccc23)NC(=O)[C@H](Cc2ccc(O)cc2)NC(=O)[C@H](CCC(=O)O)NC1=O)[C@@H](C)O [Peptide L9A] (Ac-LTF[R8]EYWQA[Cba][S5]SAA-NH2; staple 4-11) | 12 | 0.16 | 48.7 | – | – | – | – | –
6 | CC(=O)N[C@@H](CC(C)C)C(=O)N[C@H](C(=O)N[C@@H](Cc1ccccc1)C(=O)N[C@]1(C)CCCCCCC=CCCC[C@@](C)(C(=O)N[C@@H](CO)C(=O)N[C@@H](C)C(=O)N[C@@H](C)C(N)=O)NC(=O)[C@H](CC2CCC2)NC(=O)[C@H](CC(C)C)NC(=O)[C@H](C)NC(=O)[C@H](Cc2c[nH]c3ccccc23)NC(=O)[C@H](Cc2ccc(O)cc2)NC(=O)[C@H](CCC(=O)O)NC1=O)[C@@H](C)O [Peptide Q8A] | 26.5 | 0.1 | 33.4 | – | – | – | – | –
7 | CC(=O)N[C@@H](CCCCN=[N+]=[N-])C(=O)NCCC(=O)N[C@@H](CC(C)C)C(=O)N[C@H](C(=O)N[C@@H](Cc1ccccc1)C(=O)N[C@]1(C)CCCCCCC=CCCC[C@@](C)(C(=O)N[C@@H](CO)C(=O)N[C@@H](C)C(=O)N[C@@H](C)C(N)=O)NC(=O)[C@H](CC2CCC2)NC(=O)CNC(=O)[C@H](C)NC(=O)[C@H](Cc2c[nH]c3ccccc23)NC(=O)[C@H](Cc2ccc(O)cc2)NC(=O)[C@H](CCC(=O)O)NC1=O)[C@@H](C)O [Peptide Q9G] | – | – | – | 42 | 0.68 | 38.8 | – | –
8 | CC(=O)N[C@@H](CCCCN=[N+]=[N-])C(=O)NCCC(=O)N[C@@H](CC(C)C)C(=O)N[C@H](C(=O)N[C@@H](Cc1ccccc1)C(=O)N[C@]1(C)CCCCCCC=CCCC[C@@](C)(C(=O)N[C@@H](CO)C(=O)N[C@@H](C)C(=O)N[C@@H](C)C(N)=O)NC(=O)[C@H](CC2CCC2)NC(=O)[C@@H]2CCCN2C(=O)[C@H](C)NC(=O)[C@H](Cc2c[nH]c3ccccc23)NC(=O)[C@H](Cc2ccc(O)cc2)NC(=O)[C@H](CCC(=O)O)NC1=O)[C@@H](C)O [Peptide Q9P] | – | – | – | 77.1 | 3.1 | 27.4 | < 30% and 27.4% | –
9 | CC(=O)N[C@@H](CC(C)C)C(=O)N[C@H](C(=O)N[C@@H](Cc1ccccc1)C(=O)N[C@]1(C)CCCCCCC=CCCC[C@@](C)(C(=O)N[C@@H](C)C(=O)N[C@@H](C)C(=O)N[C@@H](C)C(N)=O)NC(=O)[C@H](CC2CCC2)NC(=O)[C@H](CC(C)C)NC(=O)[C@H](CCC(N)=O)NC(=O)[C@H](Cc2c[nH]c3ccccc23)NC(=O)[C@H](Cc2ccc(O)cc2)NC(=O)[C@H](CCC(=O)O)NC1=O)[C@@H](C)O [Peptide S12A] (Ac-LTF[R8]EYWQL[Cba][S5]AAA-NH2; staple 4-11) | 20.4 | 0.35 | 36.5 | – | – | – | – | –
10 | CC(=O)N[C@@H](CCCCN=[N+]=[N-])C(=O)NCCC(=O)N[C@@H](CC(C)C)C(=O)N[C@H](C(=O)N[C@@H](Cc1ccccc1)C(=O)N[C@]1(C)CCCCCCC=CCCC[C@@](C)(C(=O)NCC(=O)N[C@@H](C)C(=O)N[C@@H](C)C(N)=O)NC(=O)[C@H](CC2CCC2)NC(=O)[C@H](CCC(N)=O)NC(=O)[C@H](C)NC(=O)[C@H](Cc2c[nH]c3ccccc23)NC(=O)[C@H](Cc2ccc(O)cc2)NC(=O)[C@H](CCC(=O)O)NC1=O)[C@@H](C)O [Peptide S12G] | – | – | – | – | 0.65 | 46.5 | – | 18.9
11 | CC(=O)N[C@@H](CCCCN=[N+]=[N-])C(=O)NCCC(=O)N[C@@H](CC(C)C)C(=O)N[C@H](C(=O)N[C@@H](Cc1ccccc1)C(=O)N[C@]1(C)CCCCCCC=CCCC[C@@](C)(C(=O)N2CCC[C@H]2C(=O)N[C@@H](C)C(=O)N[C@@H](C)C(N)=O)NC(=O)[C@H](CC2CCC2)NC(=O)[C@H](CCC(N)=O)NC(=O)[C@H](C)NC(=O)[C@H](Cc2c[nH]c3ccccc23)NC(=O)[C@H](Cc2ccc(O)cc2)NC(=O)[C@H](CCC(=O)O)NC1=O)[C@@H](C)O [Peptide S12P] | – | – | – | 45.7 | 3.7 | 30.8 | – | –
12 | CC(=O)N[C@@H](CC(C)C)C(=O)N[C@@H](C)C(=O)N[C@@H](Cc1ccccc1)C(=O)N[C@]1(C)CCCCCCC=CCCC[C@@](C)(C(=O)N[C@@H](CO)C(=O)N[C@@H](C)C(=O)N[C@@H](C)C(N)=O)NC(=O)[C@H](CC2CCC2)NC(=O)[C@H](CC(C)C)NC(=O)[C@H](CCC(N)=O)NC(=O)[C@H](Cc2c[nH]c3ccccc23)NC(=O)[C@H](Cc2ccc(O)cc2)NC(=O)[C@H](CCC(=O)O)NC1=O [Peptide T2A] (Ac-LAF[R8]EYWQL[Cba][S5]SAA-NH2; staple 4-11) | 21.3 | 1 | 36.2 | – | – | – | – | –
